This note sets out measurements from patent US20250129021A1, “SMALL MOLECULE PROTEIN SYNTHESIS MODULATORS” (Interdict Bio, Inc., priority 2023, published 2025).

Type in all cases: biochemical
Experiment [1] has as its system CCNTB1. As to the kind of experiment: In vitro transcription-translation (IVTT) assay, CCNTB1 reporter. The settings on record: HeLa S3 lysate, sfGFP/mCherry ratio. Here is the method:
In vitro transcription-translation assay setup: Each assay includes a master mix containing lysate and shared components, a 96-well plate containing compound titrations for testing, a 96-well DNA plate with reporter constructs to be tested, 96-well skirted PCR plates, and 96-well flat-bottom, black, fluorescent assay plates. Reaction materials setup: (A) Master mix—15 mL conical tube (3 mL of HeLa S3 Lysate described above; 0.6 mL of ThermoFisher Accessory Proteins (#88882); 1.2 ml of ThermoFisher Reaction Mix (#88882); 0.54 mL of nuclease-free Water); (B) 96-Well Master Mix+Compound Plate (Half-log dilutions (30 μM−0.1 μM) of 4 compounds of interest are prepared in 100% DMSO); 96-Well DNA Plate (Five DNA constructs are plated into single columns within the plate. Row 1 of the column contains nuclease free H2O, all other wells contain 110 ng/μL plasmid DNA). Reactions are started by mixing 155 μL of master mix and 3.5 μL of compound serial dilutions, then 9.1 μL of master mix+compound mixture is aliquoted across 5 96-well plates. Reactions begin with final addition of 2 μL of DNA for a 11.1 μL reaction volume in each well. The entire plate is sealed, and incubated for 2 hrs at 30° C. After 2 hrs, quench the assay using 45 μL of PBS, and transfer 50 μL to a flat-bottom black microplate Quantify the sfGFP and mCherry signals from each well on each plate, taking 3 reads of each plate, and perform data analysis below.
In vitro transcription-translation assay data analysis: Each plate is read three times in channels for both sfGFP and mCherry signals. The average signal across these 3 reads is then calculated for further analysis. Control wells containing no DNA reporter are subtracted from reporter wells in the same column to remove auto-fluorescence of the lysate. Then, the ratio of sfGFP/mCherry is calculated per well, and these ratios are averaged across the triplicate experiments on the same plate. Finally, the ratio of each titration concentration is normalized to the no drug control to create the normalized stalling metric. The error on this measurement is determined by propagating error through the averaging and normalization steps. Values are plotted and fit for IC50 determination for each test sequence and titration of compound.

Experiment [2] has as its system CCND1. Nature of the experiment: In vitro transcription-translation (IVTT) assay, CCND1 reporter. The settings on record: IVTT assay, HeLa S3 lysate, sfGFP/mCherry ratio. The method in brief: (§1)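 Reporter: mCherry, P2A, then 3×FLAG-target peptide-sfGFP fusion, IRES-initiated; HeLa S3 lysate IVTT; cpd dilutions 30 μM−0.1 μM half-log in 100% DMSO (dilution-plate conc); DNA added last; 2 h, 30° C; PBS quench.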

Experiment [3] has as its system MCL-1. Nature of the experiment: In vitro transcription-translation (IVTT) assay, MCL-1 reporter. The note with it: IVTT assay, HeLa S3 lysate, sfGFP/mCherry ratio; read-out: MCL1 IC50. The method in brief:
as §1

For experiment [4], the system named is MYC. As to the kind of experiment: In vitro transcription-translation (IVTT) assay, MYC reporter. The settings on record: IVTT assay, HeLa S3 lysate, MYC reporter, normalized sfGFP/mCherry ratio; half-log dilutions 30 μM-0.1 μM, 2 hrs at 30° C. The method in brief:
as §1

Where only a bound is given, the exact number is not on record here.

In general, IC50 refers to the midpoint of a concentration-inhibition curve.

In the case of `COc1ccc(C[C@H]2NC[C@H](O)[C@H]2OC(=O)NCc2ccnc(N3CC4(CCC4)C3)c2)cc1` [V192068, (2R,3S,4S)-4-hydroxy-2-[(4-methoxyphenyl)methyl]pyrrolidin-3-yl N-[(2-{2-azaspiro[3.3]heptan-2-yl}pyridin-4-yl)methyl]carbamate], the IC50 was under 10 µM in experiment [1], 10 to 20 µM in experiment [2], under 10 µM in experiment [3] and under 10 µM in experiment [4].
Consider `O=C(NCCC1CCNCC1)O[C@@H]1[C@@H](O)CN[C@@H]1Cc1ccc(-c2cncs2)cc1` [V192112, (2R,3S,4S)-4-hydroxy-2-{[4-(1,3-thiazol-5-yl)phenyl]methyl}pyrrolidin-3-yl N-[2-(piperidin-4-yl)ethyl]carbamate], for which the IC50 in experiment [1], in experiment [2], in experiment [3] and in experiment [4] was under 10 µM each time.
With `COc1ccc(C[C@H]2NC[C@H](O)[C@H]2OC(=O)NCCN2CCCS2(=O)=O)cc1` [V191944, (2R,3S,4S)-4-hydroxy-2-[(4-methoxyphenyl)methyl]pyrrolidin-3-yl N-[2-(1,1-dioxo-1lambda6,2-thiazolidin-2-yl)ethyl]carbamate], the IC50 in experiment [1] was under 10 µM; in experiment [2], 10 to 20 µM; in experiment [3], under 10 µM; in experiment [4], under 10 µM.
For the compound `O=C(NCc1ccnc(N2CCC2)c1)O[C@@H]1[C@@H](O)CN[C@@H]1Cc1ccc(-c2ccc(C(F)(F)F)cc2)cc1` [V192071, (2R,3S,4S)-4-hydroxy-2-((4′-(trifluoromethyl)-[1,1′-biphenyl]-4-yl)methyl)pyrrolidin-3-yl ((2-(azetidin-1-yl)pyridin-4-yl)methyl)carbamate], the IC50 is 20 to 30 µM in experiment [1], over 30 µM in experiment [2], 20 to 30 µM in experiment [3] and 20 to 30 µM in experiment [4].
Regarding `O=C(NCc1ccc2c(c1)CCNC2)O[C@@H]1[C@@H](O)CN[C@@H]1Cc1ccc(-c2ccc3c(c2)CC(F)(F)C3)cc1` [V192060, (2R,3S,4S)-2-{[4-(2,2-difluoro-1,3-dihydroinden-5-yl)phenyl]methyl}-4-hydroxypyrrolidin-3-yl N-(1,2,3,4-tetrahydroisoquinolin-6-ylmethyl)carbamate], the IC50 in experiment [1] was under 10 µM; in experiment [2] it was 20 to 30 µM; in experiment [3], under 10 µM; in experiment [4], under 10 µM.
`O=C(NCC[C@@H]1CCCN1)O[C@@H]1[C@@H](O)CN[C@@H]1Cc1ccc(-c2ccc3c(c2)CC(F)(F)C3)cc1` [V191961, (2R,3S,4S)-2-{[4-(2,2-difluoro-1,3-dihydroinden-5-yl)phenyl]methyl}-4-hydroxypyrrolidin-3-yl N-{2-[(2S)-pyrrolidin-2-yl]ethyl}carbamate]: the IC50 in experiment [1] is under 10 µM; in experiment [2], 10 to 20 µM; in experiment [3], under 10 µM; in experiment [4] it was 10 to 20 µM.
As to `O=C(NCc1ccccc1)O[C@@H]1[C@@H](O)CN[C@@H]1Cn1cccn1` [V188209, (2R,3S,4S)-4-hydroxy-2-(pyrazol-1-ylmethyl)pyrrolidin-3-yl N-benzylcarbamate], the IC50 in experiment [1], in experiment [2], in experiment [3] and in experiment [4] was over 30 µM each time.
`COc1ccc(C[C@H]2NC[C@H](O)[C@H]2OC(=O)NCc2ccc(C3(N)CC3)cc2)cc1` [V192069, (2R,3S,4S)-4-hydroxy-2-[(4-methoxyphenyl)methyl]pyrrolidin-3-yl N-{[4-(1-aminocyclopropyl)phenyl]methyl}carbamate]: the IC50 in experiment [1], in experiment [2], in experiment [3] and in experiment [4] was under 10 µM in each case.
Take `O=C(NCCC1CCNCC1)O[C@@H]1[C@@H](O)CN[C@@H]1Cc1ccc(-c2ccc(F)c(F)c2)cc1` [V192051, (2R,3S,4S)-2-({3′,4′-difluoro-[1,1′-biphenyl]-4-yl}methyl)-4-hydroxypyrrolidin-3-yl N-[2-(piperidin-4-yl)ethyl]carbamate]: the concentration for half-maximal inhibition (IC50) in experiment [1], in experiment [2], in experiment [3] and in experiment [4] was under 10 µM in each case.
Consider `O=C(NCCC1CCNCC1)O[C@@H]1[C@@H](O)CN[C@@H]1Cc1ccc(-c2ccccc2)cc1` [V192050, (2R,3S,4S)-2-{[1,1′-biphenyl]-4-ylmethyl}-4-hydroxypyrrolidin-3-yl N-[2-(piperidin-4-yl)ethyl]carbamate], for which the IC50 in experiment [1] is 10 to 20 µM; in experiment [2], over 30 µM; in experiment [3], 10 to 20 µM; in experiment [4], 10 to 20 µM.
`COc1ccc(C[C@H]2NC[C@H](O)[C@H]2OC(=O)NCC[C@@]2(C)CCCN2)cc1` [V192041, (2R,3S,4S)-4-hydroxy-2-(4-methoxybenzyl)pyrrolidin-3-yl (2-((R)-2-methylpyrrolidin-2-yl)ethyl)carbamate]: the IC50 in experiment [1] was under 10 µM; in experiment [2], 10 to 20 µM; in experiment [3], under 10 µM; in experiment [4] it was under 10 µM.
Regarding `COc1ccc(C[C@H]2NC[C@H](O)[C@H]2OC(=O)N[C@@H](C)c2ccccc2)cc1` [V191971, (2R,3S,4S)-4-hydroxy-2-[(4-methoxyphenyl)methyl]pyrrolidin-3-yl N-[(1S)-1-phenylethyl]carbamate], the IC50 in experiment [1] was 10 to 20 µM; in experiment [2] it was over 30 µM; in experiment [3], 20 to 30 µM; in experiment [4], 10 to 20 µM.
In the case of `O=C(NCC(F)F)O[C@@H]1[C@@H](O)CN[C@@H]1Cc1ccc(-c2cnco2)cc1` [V192264, (2R,3S,4S)-4-hydroxy-2-(4-(oxazol-5-yl)benzyl)pyrrolidin-3-yl (2,2-difluoroethyl)carbamate], the IC50 in experiment [1], in experiment [2], in experiment [3] and in experiment [4] was under 10 µM throughout.
In the case of `O=C(NCC[C@@H]1CCCN1)O[C@@H]1[C@@H](O)CN[C@@H]1Cc1ccc(-c2ccc(Cl)s2)cc1` [V191891, (2R,3S,4S)-2-{[4-(5-chlorothiophen-2-yl)phenyl]methyl}-4-hydroxypyrrolidin-3-yl N-{2-[(2S)-pyrrolidin-2-yl]ethyl}carbamate], the IC50 in experiment [1] was under 10 µM; in experiment [2], 10 to 20 µM; in experiment [3], under 10 µM; in experiment [4], under 10 µM.
For the compound `O=C(NCCC1CCNCC1)O[C@@H]1[C@@H](O)CN[C@@H]1Cc1ccc(-c2ccc3c(c2)CC(F)(F)C3)cc1` [V192053, (2R,3S,4S)-2-{[4-(2,2-difluoro-1,3-dihydroinden-5-yl)phenyl]methyl}-4-hydroxypyrrolidin-3-yl N-[2-(piperidin-4-yl)ethyl]carbamate], the IC50 is 10 to 20 µM in experiment [1], over 30 µM in experiment [2], 20 to 30 µM in experiment [3] and over 30 µM in experiment [4].
As to `O=C(NCC[C@H]1CCCN1)O[C@@H]1[C@@H](O)CN[C@@H]1Cc1ccc(-c2ccc(S(F)(F)(F)(F)F)cc2)cc1` [V192039, (2R,3S,4S)-4-hydroxy-2-{[4′-(pentafluoro-lambda6-sulfanyl)-[1,1′-biphenyl]-4-yl]methyl}pyrrolidin-3-yl N-{2-[(2R)-pyrrolidin-2-yl]ethyl}carbamate], the IC50 in experiment [1], in experiment [2] and in experiment [4] was over 30 µM throughout.
